One molecule from article PMC12276035, “Novel Para‐Phenylenediamine‐Based Derivatives as Receptor Tyrosine Kinase‐like Orphan Receptor 1 (ROR1) Inhibitors: An In Vitro Preliminary Characterization” (Chemmedchem, 2025) can be followed below.

In assay [1] the target is T1, ROR1 kinase domain (Homo sapiens, UniProt Q01973).
T1 construct: recombinant human ROR1 protein (aa 453‐783, His&GST Tag); His; GST; purchased Elabscience
T1 sequence (Q01973 453-783): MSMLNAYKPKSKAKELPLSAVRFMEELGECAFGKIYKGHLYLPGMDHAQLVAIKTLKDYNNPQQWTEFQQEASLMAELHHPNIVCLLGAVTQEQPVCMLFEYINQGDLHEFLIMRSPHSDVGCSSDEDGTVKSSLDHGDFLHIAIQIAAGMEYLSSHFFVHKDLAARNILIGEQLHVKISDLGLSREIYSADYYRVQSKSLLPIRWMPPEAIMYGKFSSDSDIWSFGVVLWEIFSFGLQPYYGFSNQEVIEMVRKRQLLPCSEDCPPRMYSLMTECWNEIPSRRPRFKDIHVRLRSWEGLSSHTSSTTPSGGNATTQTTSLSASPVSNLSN
The experiment in a line: SPR assay on ROR1 kinase domain. The assay is classed as binding. Conditions: SPR, KD ± SD, 0 to 100 μM, 25 °C; n.b. = no binding; read-out: Kinase domain KD. As to the method:
We performed molecular docking experiments to explore the binding mode of novel derivatives using the crystallographic structure of the protein co‐complexed with ponatinib, a known inhibitor of ROR1 (PDB code: 6TU9).^[ [30] ^] […] To evaluate the affinity of the synthesized molecules (10, 13, 14, 17–21, 26–29) for the protein counterpart, SPR assay was performed against kinase domain ROR1. Protein immobilization was achieved using the amide coupling method, and the molecules were tested at 10 different concentrations, ranging from 0 to 100 μM. Ponatinib was used as a positive control^[ [30] ^] (Table 1 ).
SPR spectroscopy analyses were conducted to evaluate the binding affinity of the synthesized compounds against ROR1 receptor using a Biacore T200 optical biosensor equipped with research‐grade CM5 sensor chips (Cytiva, Marlborough, USA). ROR1 kinase domain was immobilized on the CM5 sensor chip surface following standard amine‐coupling protocols. Specifically, kinasic domain was immobilized at pH 4.5 10 mM CH3COONa using a flow rate of 10 μL min^−1, achieving a density of around 20 kRU.
For the experiments, surfaces of ROR1, along with an unmodified reference surface, were prepared for simultaneous analyses. […] The compounds were injected in a series of concentrations (1:2 dilution, 10 different concentrations), spanning from 0 to 100 μM. The concentration series were prepared in 96‐well plates. SPR experiments were conducted at 25 °C, with a flow rate of 20 μL min^−1, allowing for 90 s of association monitoring and 400 s of dissociation monitoring. Changes in mass, reflective of the binding response, were recorded as resonance units (RU). K D values were determined using the Biaevaluation software performing a global fit of the double‐referenced association and dissociation data to a 1:1 interaction model^[ [43] ^] (see Figure S38, Supporting Information).
On the technique in general: SPR reads the build-up and loss of mass on a sensor chip optically.

The test system of assay [2] is SH‐SY5Y cells. The experiment in a line: MTT cell viability assay, SH‐SY5Y. The following applies: Homo sapiens, cytotoxicity, treated for 72 h, read-out: EC50 ± SD SH‐SY5Y. The assay is classed as cell-based. As to the method:
Cytotoxicity studies, assessing the activity of the synthetized compounds, were performed only on the molecules showing the best binding profile in the SPR assay. MTT test was performed on two cell lines known for overexpressing ROR1, particularly MTT assays were conducted on JeKo‐1 (human mantle cell lymphoma) and SH‐SY5Y (neuroblastoma), exposing them to different concentrations of compounds for 72 h (Table 2 ). […] This increased effectiveness is likely due to the high expression of the target protein in leukemia and other hematologic malignancies. […] A key structural difference in 18 and 19 compared to active compounds is the absence of the trifluoromethyl group on the aromatic ring. Indeed, the removal of the trifluoromethyl group (18) or the incorporation of an electron‐donating substituent (19) alters the interaction with the ATP‐binding pocket.
The neuroblastoma SH‐SY5Y cells, a human neuroblastoma cell line of neural crest origin, were obtained from ATCC and were grown in DMEM supplemented with 10% v/v fetal bovine serum, 2 mM L‐glutamine, 100 U mL^−1 penicillin, and 0.1 mg mL^−1 streptomycin.
Cell viability was established by measuring mitochondrial metabolic activity with MTT. In brief, SH‐SY5Y (20 × 10^3 cells/well) and JeKo‐1 (10 × 10^3 cells/well) were plated into 96‐well plates for 24 h, then the compounds (1.56–50 μM) were added. […], cells were replaced with a fresh medium containing 0.5 mg mL^−1 MTT.^[ [45] ^] Cells were incubated for 1–3 h at 37 °C, then the medium was discarded, and formazan blue crystals in the cells dissolved with 100 μL per well of a solution containing isopropanol/HCl 0.1 M. The absorbance was measured at 570 nm using a microplate reader (Multiskan Go, Thermo Scientific, Waltham, MA, USA). Cell viability was expressed as a percentage relative to the untreated cells cultured in medium with 0.1% DMSO and set to 100%, whereas 10% DMSO was used as positive control and set to 0% of viability. The EC50 values were calculated using GraphPad Prism 8.0 software by nonlinear regression of dose‐response inhibition.

For assay [3], the system named is JeKo‐1 cells. The experiment in a line: Annexin V‐FITC/PI staining apoptosis, flow cytometry. In kind it is cell-based, human. The following applies: JeKo‐1, 20 μM, 72 h, early and late apoptosis. An excerpt: This observation aligns with previous studies reporting that ROR1 is highly expressed in B‐cell malignancies, including mantle cell lymphoma, where it plays a crucial role in survival signaling and resistance to apoptosis.^[ [10], [32] ^] Given the higher susceptibility of JeKo‐1 cells to the inhibitor, we selected this model for further apoptotic analysis. However, for completeness, apoptotic data for the SH‐SY5Y cell line are also provided in the Supporting Information (Figure S39, Supporting Information). Specifically, cells were incubated with compounds 17, 20, or 29 (20 μM) for 72 h and a flow cytometry analysis using Annexin V/PI staining was performed. After treatment, a very strong increase in the apoptotic response was observed, in both early and late apoptotic populations compared to the negative control (Figure 4 ). […] These findings are in accordance with the literature and further support the potential of ROR1 inhibition in promoting cell death in mantle cell lymphoma.^[ [33] ^]
Figure 4 Proapoptotic activity of compounds 17, 20, and 29 (20 μM) on JeKo‐1 cells treated for 72 h. A) Representative flow cytometry plots using Annexin V‐FITC/PI staining for apoptosis. B) Related quantitative analysis is reported. Data are expressed as a percentage of live, apoptotic, and necrotic cells. Results are shown as mean ± standard deviation (SD) from three independent experiments. *** denote p < 0.001 versus Ctrl.
Apoptosis of the cells was assessed using annexin V‐FITC/PI reagents. JeKo‐1 cells (60 × 10^3 cells/well) were seeded into 24‐well plates and incubated for 72 h with compounds (20 and 10 μM). After treatment, the collected cells were resuspended in a 100 μL assay buffer, then 5 Annexin V‐FITC and 1 PI reagents were added following incubation for 20 min at room temperature according to the manufacturer's protocol (Dead Cell Apoptosis Kits with Annexin V for Flow Cytometry, Thermo Fisher Scientific). Cells were analyzed with a Becton Dickinson FACScan flow cytometer using the Cell Quest software, version 4 (Franklin Lakes, NJ, USA).^[ [46] ^]

Usually Kd stands for the concentration at which binding is half-saturated. What is called EC50 is the midpoint of the concentration-response curve. With `O=C(NCc1ccc(-c2ccccc2)cc1)Nc1ccc(NCC2CCNCC2)cc1C(F)(F)F` [Compound 17], in assay [1], the Kd was determined as 12.1 ± 2.68 µM. Further, the concentration for a half-maximal effect (EC50) in assay [2] turned out to be 17.7 ± 2.73 µM. The apoptotic cells in assay [3] came to 89.02 ± 3.12%.
